From the NIST ThermoML archive (doi:10.1016/j.jct.2019.02.011)

Experiment: xn = mol fraction of the nth substance listed
Settings: Liquid, Vibrating tube method

COC(=O)OC [dimethyl carbonate] + CCCO
mass density [kg/m3]
Settings	100 kPa	5000 kPa	10000 kPa	15000 kPa	20000 kPa	25000 kPa	30000 kPa	35000 kPa	40000 kPa
298.15 K, x1 = 0.0273	–	–	–	–	–	824.63	827.8	830.69	833.7
298.15 K, x1 = 0.0506	–	–	–	–	–	831.37	834.55	837.44	840.46
298.15 K, x1 = 0.0755	–	–	–	–	–	838.51	841.73	844.68	847.74
298.15 K, x1 = 0.1007	–	–	–	–	–	845.6	848.88	851.87	854.94
298.15 K, x1 = 0.1495	–	–	–	–	–	859.5	862.83	865.84	868.95
298.15 K, x1 = 0.2003	–	–	–	–	–	873.75	877.1	880.17	883.35
298.15 K, x1 = 0.2529	–	–	–	–	–	888.37	891.77	894.9	898.11
298.15 K, x1 = 0.2993	–	–	–	–	–	901.23	904.69	907.88	911.12
298.15 K, x1 = 0.3497	–	–	–	–	–	915.04	918.51	921.76	925.01
298.15 K, x1 = 0.401	–	–	–	–	–	928.97	932.5	935.75	939.03
298.15 K, x1 = 0.4509	–	–	–	–	–	942.42	946	949.32	952.62
298.15 K, x1 = 0.5002	–	–	–	–	–	955.58	959.23	962.55	965.93
298.15 K, x1 = 0.5498	–	–	–	–	965.01	968.71	972.41	975.8	979.21
298.15 K, x1 = 0.5996	–	–	–	–	978.09	981.85	985.57	988.96	992.41
298.15 K, x1 = 0.6499	–	–	–	–	991.19	995.01	998.78	1002.23	1005.7
298.15 K, x1 = 0.7006	–	–	–	–	1004.45	1008.28	1012.06	1015.57	1019.07
298.15 K, x1 = 0.7471	–	–	–	–	1016.43	1020.32	1024.11	1027.63	1031.19
298.15 K, x1 = 0.7989	–	–	–	–	1029.72	1033.62	1037.46	1041.04	1044.59
298.15 K, x1 = 0.8491	–	–	–	–	1042.57	1046.53	1050.43	1054.02	1057.6
298.15 K, x1 = 0.8993	–	–	–	–	1055.43	1059.4	1063.31	1066.92	1070.52
298.15 K, x1 = 0.9249	–	–	–	–	1061.94	1065.92	1069.84	1073.44	1077.05
298.15 K, x1 = 0.9489	–	–	–	–	1067.96	1071.94	1075.86	1079.52	1083.13
298.15 K, x1 = 0.9743	–	–	–	–	1074.33	1078.36	1082.29	1085.95	1089.6
298.15 K, x1 = 1	–	–	–	–	1080.9	1084.89	1088.82	1092.44	1096.04
303.15 K, x1 = 0.0273	802.96	806.96	810.58	814.19	817.69	821.09	824.3	827.45	830.37
303.15 K, x1 = 0.0506	809.34	813.38	817.06	820.71	824.27	827.72	830.93	834.14	837.11
303.15 K, x1 = 0.0755	816.25	820.3	824.02	827.68	831.25	834.74	838.05	841.27	844.3
303.15 K, x1 = 0.1007	823.16	827.26	831	834.7	838.32	841.82	845.13	848.4	851.44
303.15 K, x1 = 0.1495	836.62	840.77	844.56	848.32	851.95	855.5	858.87	862.14	865.25
303.15 K, x1 = 0.2003	850.48	854.68	858.53	862.39	866.08	869.69	873.1	876.43	879.56
303.15 K, x1 = 0.2529	864.74	869	872.91	876.81	880.56	884.23	887.7	891.09	894.28
303.15 K, x1 = 0.2993	877.26	881.57	885.49	889.45	893.25	896.97	900.44	903.84	907.1
303.15 K, x1 = 0.3497	890.62	894.99	899.01	903.02	906.89	910.67	914.19	917.64	920.92
303.15 K, x1 = 0.401	904.1	908.57	912.65	916.71	920.64	924.47	928.04	931.51	934.85
303.15 K, x1 = 0.4509	917.2	921.72	925.81	929.92	933.91	937.75	941.37	944.84	948.26
303.15 K, x1 = 0.5002	930.06	934.59	938.74	942.9	946.9	950.79	954.47	958	961.43
303.15 K, x1 = 0.5498	942.89	947.47	951.68	955.89	959.95	963.85	967.53	971.12	974.61
303.15 K, x1 = 0.5996	955.69	960.32	964.59	968.8	972.92	976.87	980.61	984.2	987.76
303.15 K, x1 = 0.6499	968.54	973.22	977.56	981.82	985.95	989.96	993.75	997.34	1000.93
303.15 K, x1 = 0.7006	981.46	986.15	990.49	994.8	998.94	1003.01	1006.8	1010.45	1014.1
303.15 K, x1 = 0.7471	993.16	997.9	1002.3	1006.66	1010.86	1014.93	1018.72	1022.39	1026.05
303.15 K, x1 = 0.7989	1006.2	1010.99	1015.45	1019.82	1024.03	1028.15	1032	1035.67	1039.35
303.15 K, x1 = 0.8491	1018.81	1023.65	1028.12	1032.54	1036.81	1040.99	1044.84	1048.52	1052.22
303.15 K, x1 = 0.8993	1031.43	1036.28	1040.81	1045.23	1049.51	1053.69	1057.6	1061.28	1065.05
303.15 K, x1 = 0.9249	1037.82	1042.67	1047.21	1051.62	1055.91	1060.1	1064.01	1067.75	1071.52
303.15 K, x1 = 0.9489	1043.76	1048.62	1053.16	1057.63	1061.92	1066.11	1070.02	1073.76	1077.54
303.15 K, x1 = 0.9743	1050.11	1054.97	1059.51	1063.98	1068.28	1072.47	1076.38	1080.13	1083.97
303.15 K, x1 = 1	1056.61	1061.47	1066.02	1070.49	1074.79	1078.99	1082.9	1086.6	1090.4
308.15 K, x1 = 0.0273	798.56	802.69	806.56	810.18	813.81	817.21	820.58	823.72	826.71
308.15 K, x1 = 0.0506	804.88	809.05	812.98	816.65	820.28	823.74	827.15	830.34	833.34
308.15 K, x1 = 0.0755	811.69	815.86	819.84	823.57	827.25	830.71	834.12	837.36	840.41
308.15 K, x1 = 0.1007	818.55	822.77	826.76	830.48	834.21	837.72	841.19	844.43	847.53
308.15 K, x1 = 0.1495	831.9	836.17	840.21	844.04	847.82	851.38	854.86	858.14	861.25
308.15 K, x1 = 0.2003	845.6	849.97	854.07	857.95	861.78	865.4	868.98	872.31	875.47
308.15 K, x1 = 0.2529	859.71	864.12	868.28	872.21	876.1	879.78	883.42	886.79	890
308.15 K, x1 = 0.2993	872.12	876.53	880.75	884.73	888.67	892.4	896.05	899.42	902.69
308.15 K, x1 = 0.3497	885.38	889.84	894.11	898.2	902.19	905.97	909.68	913.1	916.37
308.15 K, x1 = 0.401	898.75	903.3	907.64	911.77	915.81	919.66	923.42	926.84	930.17
308.15 K, x1 = 0.4509	911.74	916.34	920.73	924.87	928.97	932.87	936.64	940.1	943.48
308.15 K, x1 = 0.5002	924.45	929.1	933.55	937.74	941.84	945.79	949.62	953.13	956.52
308.15 K, x1 = 0.5498	937.17	941.82	946.33	950.57	954.72	958.68	962.57	966.12	969.52
308.15 K, x1 = 0.5996	949.8	954.5	959.02	963.36	967.52	971.54	975.48	979.03	982.49
308.15 K, x1 = 0.6499	962.55	967.29	971.88	976.22	980.43	984.5	988.45	992.05	995.51
308.15 K, x1 = 0.7006	975.36	980.15	984.79	989.19	993.45	997.53	1001.49	1005.08	1008.6
308.15 K, x1 = 0.7471	986.95	991.79	996.49	1000.94	1005.2	1009.34	1013.35	1016.99	1020.52
308.15 K, x1 = 0.7989	999.88	1004.72	1009.48	1013.98	1018.3	1022.49	1026.51	1030.15	1033.73
308.15 K, x1 = 0.8491	1012.38	1017.27	1022.04	1026.54	1030.91	1035.16	1039.19	1042.88	1046.46
308.15 K, x1 = 0.8993	1024.9	1029.78	1034.61	1039.16	1043.54	1047.79	1051.88	1055.57	1059.15
308.15 K, x1 = 0.9249	1031.23	1036.11	1040.95	1045.55	1049.98	1054.24	1058.33	1062.01	1065.61
308.15 K, x1 = 0.9489	1037.12	1042.05	1046.89	1051.5	1055.93	1060.19	1064.28	1068.02	1071.61
308.15 K, x1 = 0.9743	1043.46	1048.4	1053.24	1057.85	1062.28	1066.54	1070.69	1074.37	1078.02
308.15 K, x1 = 1	1049.91	1054.84	1059.69	1064.3	1068.73	1073	1077.1	1080.78	1084.38
